The target of data set [1] is T1, human serum albumin (HSA) (Homo sapiens, UniProt P02768).
T1 construct: purchased Daicel Chemical Industries CHIRALPAK HSA, column-batch H13L-2405
Kind of data set: Plasma protein binding using bioaffinity chromatography (CHIRALPAK HSA). Particulars: bioaffinity chromatography on HSA stationary phase. Format: in vitro ADME. The method, then:
The binding of (±)-SNAP-7941 and FE@SNAP to human serum albumin (HSA) was examined by bioaffinity chromatography according to a previously published manuscript. In short, the analytes were diluted in 2-propanol and ammonium acetate buffer (0.5 mg/ml) and injected on the CHIRALPAK®HSA stationary phase (50 × 3 mm, 5 μm pore size, column-batch: H13L-2405, Daicel Chemical Industries, West Chester, PA, USA). Prior the experiments, the column was calibrated with reference standards, and the resulting regression equation was used to convert the logarithmic capacity factors (log(k′)) to the percent of plasma protein binding (%PPB). The calibration curves, as well as the experiments, were performed by triplicate injections and at least three times.

A further data set addresses MCHR1. The arrangement: method as in PMID 28808288. To be noted: previous experiments; read-out: Affinity to MCHR1 (Ki); cited from earlier work.

Results on two molecules are retold here after paper PMC6449294, “SNAPshots of the MCHR1: a Comparison Between the PET-Tracers [^18F]FE@SNAP and [^11C]SNAP-7941” (Molecular Imaging and Biology, 2018).

T1 sequence (P02768 25-609): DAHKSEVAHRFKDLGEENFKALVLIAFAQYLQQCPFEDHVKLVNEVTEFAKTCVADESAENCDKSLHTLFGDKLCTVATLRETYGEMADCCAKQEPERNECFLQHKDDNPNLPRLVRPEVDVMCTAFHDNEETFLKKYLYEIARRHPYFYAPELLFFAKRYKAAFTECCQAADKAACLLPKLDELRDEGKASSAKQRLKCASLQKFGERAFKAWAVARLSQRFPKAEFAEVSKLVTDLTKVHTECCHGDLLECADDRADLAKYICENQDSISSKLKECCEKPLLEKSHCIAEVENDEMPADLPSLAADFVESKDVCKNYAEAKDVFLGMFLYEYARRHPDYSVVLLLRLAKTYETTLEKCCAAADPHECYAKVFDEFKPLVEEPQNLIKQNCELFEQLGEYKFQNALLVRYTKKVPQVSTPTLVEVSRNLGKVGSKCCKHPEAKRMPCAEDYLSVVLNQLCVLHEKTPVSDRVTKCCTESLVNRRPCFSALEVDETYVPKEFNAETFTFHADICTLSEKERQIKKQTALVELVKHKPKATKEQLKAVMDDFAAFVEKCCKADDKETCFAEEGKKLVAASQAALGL

For `COCC1=C(C(=O)OC)[C@H](c2ccc(F)c(F)c2)N(C(=O)NCCCN2CCC(c3cccc(NC(C)=O)c3)CC2)C(=O)N1` (racemic) [(±)-SNAP-7941, reference compound], the “Plasma protein binding (%PPB) / Binding to human serum albumin” value in data set [1] is given as 80 ± 0.9%. At MCHR1, the Ki was 3.91 ± 0.74 nM.
Consider `COCC1=C(C(=O)OCCF)C(c2ccc(F)c(F)c2)N(C(=O)NCCCN2CCC(c3cccc(NC(C)=O)c3)CC2)C(=O)N1` (racemic) [FE@SNAP, (±)-(2-fluoroethyl)-3-{[(3-{4-[3-(acetylamino)phenyl]-1-piperidinyl}propyl)amin]carbonyl}-4-(3,4-difluorophenyl)-6-(methoxymethyl)-2-oxo-1,2,3,4-tetra-hydro-5-pyrimidenecarboxylate], for which the “Plasma protein binding (%PPB) / Binding to human serum albumin” value in data set [1] worked out at 77 ± 0.2%. Moreover, the Ki at MCHR1 was 9.98 ± 1.12 nM.

For orientation: Ki means a measure of affinity in units of concentration, obtained from inhibition or displacement.
